Reference: publication PMC7297445, “Pharmacokinetic/Pharmacodynamic Determination and Preclinical Pharmacokinetics of the β-Lactamase Inhibitor ETX1317 and Its Orally Available Prodrug ETX0282” (ACS Infectious Diseases, 2020)
Entries after “also recorded” stand apart in the source; their conditions may differ.

Assays:
[1] = Mouse oral pharmacokinetics (satellite infected animals); type: in vivo; settings: after oral administration in mice
[2] = system: E. coli strain (ATCC 25922); assay: Murine neutropenic thigh model, CPDP dose range study; type: in vivo, mouse; settings: 50 mg/kg oral q6h, administered alone
Excerpt: All in vivo efficacy studies were supported with PK of ETX1317 and CPD following oral administration of ETX0282 and CPDP. For the purposes of understanding the exposure-PD response relationship, total systemic concentrations of ETX1317 and cefpodoxime were normalized to unbound drug levels after accounting for protein binding with percent unbound estimates of 93% and 66%, respectively, in mouse plasma (Table S2). An in vivo dose range study with CPDP administered alone against a susceptible E. coli strain (ATCC 25922, CPD MIC = 0.5 μg/mL) was completed initially in a murine neutropenic thigh model to confirm its PK/PD target. In this study a 50 mg/kg oral dose of CPDP administered q6h was consistent with achieving 1–log kill over 24 h. […] Oral exposure was generally dose proportional to 50 mg/kg; however, it became less than dose proportional at ≥200 mg/kg.
In vivo neutropenic infection models in the mouse were conducted as previously described.[48],[49] All procedures were performed to Entasis approved IACUC policies and guidelines as well as OLAW standards. Briefly, Female CD-1 mice (20–22 g, Charles River Laboratories) were acclimated for 5 days prior to start of study. Animals were housed 3 per cage with free access to food and water. […]

E. coli ARC4419 = assay: Murine neutropenic thigh infection model; type: in vivo, mouse
Procedure: (§1) To further understand whether this in vitro activity translated to in vivo efficacy, an additional neutropenic thigh study was conducted in mice with increasing doses of ETX0282 alone vs E. coli NMC101 (ETX1317 MICBLI = 1 μg/mL) and ARC4419 (ETX1317 MICBLI = 0.25 μg/mL). […] Despite the significant exposure of ETX1317, a 200 mg/kg q6h dose of ETX0282 alone was ineffective for both strains (Table 6).
(§2) In vivo neutropenic infection models in the mouse were conducted as previously described.[48],[49] All procedures were performed to Entasis approved IACUC policies and guidelines as well as OLAW standards. Briefly, Female CD-1 mice (20–22 g, Charles River Laboratories) were acclimated for 5 days prior to start of study. Animals were housed 3 per cage with free access to food and water. Mice were rendered neutropenic via two doses of cyclophosphamide on days −4 and −1 with 150 mg/kg and 100 mg/kg delivered intraperitoneally in a dose volume of 10 mL/kg, respectively.[48]
(§3) Enterobacteriaceae isolates ARC2687, ARC4488, ARC5118, NMC101, and ARC4419 were prepared for infection from an overnight plate culture. A portion of the plate was resuspended in sterile saline and adjusted to an OD of 0.1 at 625 nm. The adjusted bacterial suspension was further diluted to target an infecting inoculum of approximately 5.0 × 10^6–1.0 × 10^7 CFU/mouse. The actual inoculum size varied between 5.5 × 10^6–1.6 × 10^6 CFU/thigh and administered via intramuscular injection of (100 μL). Plate counts of the inoculum were performed to confirm inoculum concentration and treatment was initiated 2 h after bacterial challenge.
(§4) ETX0282 and CPDP were formulated in 0.5% HPMC/0.1% Tween 80 suspension. meropenem (utilized as a positive control) was solubilized in water for injection. All studies utilized a meropenem dosed at 600 mg/kg q6h subcutaneously as positive control against meropenem sensitive isolates (MIC ≤ 2 μg/mL) and as a negative control against meropenem resistant isolates. For dose arms utilizing a combination of ETX0282 and CPDP, both agents were reconstituted in the same vehicle. All dose concentrations were adjusted to deliver targeted mg/kg doses within a dose volume of 10 mL/kg. Formulation potency was verified by LC/MS/MS.
(§5) ETX0282 and CPDP were administered via q6h dose intervals in order to achieve targeted unbound exposures. At 24 h post initiation of therapy, animals were euthanized, tissue samples aseptically collected and homogenized. Bacterial colony enumeration of tissue homogenate was performed by serial dilution on TSA plates which were incubated overnight at 35 °C prior to colony (CFU) counting.

E. coli NMC101 = assay: Murine neutropenic thigh infection model; type: in vivo, mouse
Procedure: as §1, §2, §3, §4, §5

K. pneumoniae ARC4488 = assay: Murine neutropenic thigh infection model; type: in vivo, mouse; settings: 50 mg/kg p.o./q6h
Procedure: as §2, §3, §4, §5

K. pneumoniae ARC5118 = assay: Murine neutropenic thigh infection model; type: in vivo, mouse; settings: 50 mg/kg p.o./q6h
Procedure: as §2, §3, §4, §5

E. coli ARC2687 = assay: Murine neutropenic thigh infection model; type: in vivo, mouse
Procedure: as §2, §3, §4, §5

[3] = Human PK prediction (allometric scaling); settings: based upon non-clinical PK data
Excerpt: The methodology utilized for prediction of human PK of ETX1317 was consistent with methods used in support of similar chemotypes such as avibactam and ETX2514.[43] Human predictions for volume of distribution (Vd,ss) and clearance (CL) were within 2-fold of observed mean data obtained in Phase 1 studies, with renal clearance as the predominant clearance mechanism.[44],[45] Pharmacokinetic and excretion data from rats, dogs, and monkeys were used collectively for the projection of ETX1317 PK. Liver S9 incubations were also performed across all species (including human) to confirm consistent conversion of ETX0282 to ETX1317 at projected dose levels of ETX0282.[42] Human PK prediction of ETX1317 was completed using single species allometry for volume of distribution from dog PK and dog and monkey single species scaling using liver blood flow to predict non-renal clearance (CLNR).[46] […] While urinary excretion of ETX1317 was lower in dogs relative to monkeys and rats, human renal clearance (CLR) was predicted using dog-human renal correlation,[47] as this method has been highly predictive for compounds that are generally eliminated via renal excretion. The elimination half-life was estimated based upon the combined use of predicted parameters for clearance and volume of distribution, where T1/2 = ln 2*Vd,ss/CLtotal. Allometric scaling predicted human Vd,ss of 0.35 L/kg.
(§6) Based upon the non-clinical PK data, a range of 60–80% bioavailability and a moderate absorption rate of 0.5–1.0 h^–1 have been considered for humans. In consideration of these predicted parameters, mean percent fT > CT of 1 μg/mL (2× MIC of 0.5 μg/mL) estimates for a 500 mg ETX1317 equiv q12h dose of ETX0282 are summarized in Table S3.

[4] = set-up: method as in PMID 32658473; settings: across all species, including humans; cited from earlier work
[5] = Low-dose oral PK of ETX0282 across rats, dogs and monkeys; type: in vivo; settings: oral 1 to 10 mg/kg
Procedure: Intravenous and oral pharmacokinetics of ETX1317 and ETX0282 in preclinical species are summarized in Table 7 and Table S1, respectively. Time vs concentration profiles are depicted graphically in Figure S1.
as §6
Intravenous pharmacokinetics of ETX1317 investigated in jugular vein cannulated male Sprague–Dawley rats (Charles River Laboratories, n = 3/route) at a dose of 10 mg/kg formulated in 0.9% saline. Oral pharmacokinetics of ETX0282 was evaluated at a 10 mg/kg equivalent dose of ETX1317 formulated in 25:75 PEG 400:WFI. The pH of each formulation was verified to fall within a range of 4–7 and were confirmed to be in solution prior to dosing. Potency was verified by LC/MS/MS. Dose volumes were 5 and 10 mL/kg for ETX1317(i.v.) and ETX0282(p.o.), respectively for rats. In both dog (male, 3/route) and monkey (male, 3/route) studies, i.v. and p.o. doses were formulated on 25:75 PEG 400:WFI (pH ∼5) and administered at a dose of ∼1 mg/kg. Dose volume was 1 mL/kg for both routes in dogs and monkeys with the i.v. dose infused over 15 min. […]

[6] = set-up: method as in PMID 9950279; settings: oral; PEPT1 substrate; cited from earlier work
[7] = ETX0282 alone 200 mg/kg q6h, combination 50:50 mg/kg q6h

Row | Structure (SMILES) | systemic concentrations of intact prodrug [1] | efficacy over 24 h [2] | log10 CFU/g thigh change 24 h post therapy initiation (E. coli ARC4419; 50 mg/kg p.o./q6h) | log10 CFU/g thigh change 24 h post therapy initiation (E. coli NMC101; 50 mg/kg p.o./q6h) | log10 CFU/g thigh change 24 h post therapy initiation (K. pneumoniae ARC4488) | log10 CFU/g thigh change 24 h post therapy initiation (K. pneumoniae ARC5118) | log10 CFU/g thigh change 24 h post therapy initiation (E. coli ARC2687; 50 mg/kg p.o./q6h) | absorption rate considered for humans [3] | log10 CFU/g thigh change 24 h post therapy initiation (E. coli ARC4419; 10 mg/kg p.o./q6h) | log10 CFU/g thigh change 24 h post therapy initiation (E. coli ARC4419; 200 mg/kg p.o./q6h) | in vivo efficacy in words (E. coli ARC4419; [7]) | log10 CFU/g thigh change 24 h post therapy initiation (E. coli NMC101; 10 mg/kg p.o./q6h) | log10 CFU/g thigh change 24 h post therapy initiation (E. coli NMC101; 200 mg/kg p.o./q6h) | in vivo efficacy in words (E. coli NMC101; [7]) | conversion of ETX0282 to ETX1317 in liver S9 [4] | log10 CFU/g thigh change 24 h post therapy initiation (E. coli ARC2687; 10 mg/kg p.o./q6h (footnote c)) | circulating levels of intact prodrug [5] | bioavailability [6] [%]
1 | COCC1=C(C(=O)OC(C)OC(=O)OC(C)C)N2C(=O)[C@@H](NC(=O)/C(=N\OC)c3csc(N)n3)[C@H]2SC1 (stereo partly shown) [CPDP, cefpodoxime proxetil] | No concentrations of intact CPDP and ETX0282 were observed systemically | 1–log kill | +2.23 log10 CFU/g | +3.39 log10 CFU/g | +3.58 log10 CFU/g | +2.66 log10 CFU/g | +3.61 log10 CFU/g | – | – | – | – | – | – | – | – | – | – | –
2 | CC1=C[C@@H](C(N)=O)N2C[C@@H]1N(O[C@H](F)C(=O)OC(C)C)C2=O [ETX0282] | No concentrations of intact CPDP and ETX0282 were observed systemically | – | +1.06 log10 CFU/g | +1.83 log10 CFU/g | – | +1.31 log10 CFU/g | – | 0.5–1.0 h^–1 | +1.41 log10 CFU/g | +1.07 log10 CFU/g | ineffective | +2.10 log10 CFU/g | +1.39 log10 CFU/g | ineffective | efficient conversion; also recorded: Extensive and quantitative conversion | +2.93 ^c log10 CFU/g | minimal to no levels of ETX0282 | –
3 | CC1(C)S[C@@H]2[C@H](NC(=O)[C@H](N)c3ccc(O)cc3)C(=O)N2[C@H]1C(=O)O [amoxicillin] | – | – | – | – | – | – | – | – | – | – | – | – | – | – | – | – | – | > 70
